Measurements as given in PubChem BioAssay (NCI).
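Where inhibition never reached the appropriate level, the endpoint shown equals the highest concentration tested. Otherwise, values were interpolated linearly from a five-concentration, 48-hour dose response in 96-well plates. GI50 = concentration required for 50% inhibition of growth. TGI: concentration producing complete growth inhibition.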

Columns and labels:
Assay in all cases: NCI-60 cell line screen, 48 h
[1] = tested on: SK-MEL-28 melanoma
[2] = tested on: HT29 colon
[3] = tested on: CAKI-1 renal
[4] = tested on: HCC-2998 colon
[5] = tested on: SNB-75 CNS
[6] = tested on: SNB-19 CNS
[7] = tested on: SK-MEL-5 melanoma
[8] = tested on: MOLT-4 leukemia
[9] = tested on: HOP-92 NSCLC
[10] = tested on: SF-295 CNS
[11] = tested on: OVCAR-3 ovarian
[12] = tested on: SW-620 colon
[13] = tested on: HOP-62 NSCLC
[14] = tested on: NCI-H522 lung
[15] = tested on: UACC-62 melanoma
[16] = tested on: BT-549 breast

SMILES | TGI [1] | TGI [2] | TGI [3] | TGI [4] | TGI [5] | TGI [6] | TGI [7] | TGI [8] | TGI [9] | TGI [10] | TGI [11] | TGI [12] | TGI [13] | TGI [14] | TGI [15] | TGI [16] | GI50 [6] | GI50 [9] | GI50 [13]
Cc1cccc(N(C(=O)Nc2ccc(Cl)c(Cl)c2)C2=NCC(C)S2)c1 (centres undefined) | > 100 µM | > 100 µM | > 100 µM | > 100 µM | > 100 µM | > 100 µM | 45.8 µM | > 100 µM | > 100 µM | > 100 µM | > 100 µM | > 100 µM | > 100 µM | – | – | – | – | – | –
Cc1ccc(N2C(=O)CS/C2=C(\C#N)c2nc3ccccc3[nH]2)cc1 | > 100 µM | – | > 100 µM | > 100 µM | > 100 µM | > 100 µM | > 100 µM | > 100 µM | > 100 µM | – | > 100 µM | > 100 µM | > 100 µM | > 100 µM | 82.7 µM | – | – | – | –
CCSc1n/c(=C\c2ccco2)c2nncn12 | > 100 µM | > 100 µM | – | – | > 100 µM | > 100 µM | > 100 µM | > 100 µM | > 100 µM | > 100 µM | > 100 µM | > 100 µM | > 100 µM | > 100 µM | > 100 µM | – | – | – | –
CCOc1ccc(/C(Cl)=C(\C=O)c2ccc(OC)c(OC)c2)cc1OCC | > 100 µM | > 100 µM | > 100 µM | > 100 µM | > 100 µM | > 100 µM | 64.9 µM | > 100 µM | > 100 µM | > 100 µM | > 100 µM | > 100 µM | > 100 µM | > 100 µM | > 100 µM | – | – | – | –
COC(=O)C(C#CCCCCC#CC(NC(=O)OCc1ccccc1)(C(=O)OC)C(F)(F)F)(NC(=O)OCc1ccccc1)C(F)(F)F (centres undefined) | > 100 µM | > 100 µM | > 100 µM | > 100 µM | > 100 µM | > 100 µM | > 100 µM | – | > 100 µM | > 100 µM | > 100 µM | > 100 µM | > 100 µM | > 100 µM | > 100 µM | – | – | – | –
CC(=O)O[C@H]1C(=O)[C@@]2(C)[C@H]([C@H](OC(=O)c3ccccc3)[C@]3(O)C[C@H](OC(=O)[C@H](O)[C@@H](NC(=O)c4cccc(N=[N+]=[N-])c4)c4ccccc4)C(C)=C1C3(C)C)[C@]1(OC(C)=O)CO[C@@H]1C[C@@H]2O | > 22.8 µM | > 6.26 µM | > 25 µM | – | 0.785 µM | > 25 µM | 3.11 µM | 1.12 µM | > 23.9 µM | 0.19 µM | – | > 25 µM | – | – | > 15.9 µM | – | – | – | –
N#C/C(c1nc2ccccc2[nH]1)=c1\s/c(=C/c2ccc(Cl)cc2)c(=O)n1-c1ccccc1 | > 100 µM | – | > 100 µM | > 100 µM | > 100 µM | > 100 µM | > 100 µM | > 100 µM | > 100 µM | – | > 100 µM | > 100 µM | > 100 µM | > 100 µM | > 100 µM | – | – | – | –
O=C1CSC(c2ccc([N+](=O)[O-])cc2)N1c1ccc(-n2c(-c3ccccc3)nc3ccccc3c2=O)cc1 (centres undefined) | > 100 µM | > 100 µM | > 100 µM | > 100 µM | – | > 100 µM | > 100 µM | > 100 µM | – | > 100 µM | > 100 µM | > 100 µM | > 100 µM | > 100 µM | > 100 µM | > 100 µM | – | – | –
CCOP(=O)(OCC)C(C)(CC)N/C(=N/C(NC(C)=O)(C(F)(F)F)C(F)(F)F)NC1=NC(C(F)(F)F)(C(F)(F)F)N=C(C(F)(F)F)O1 (centres undefined) | > 100 µM | > 100 µM | > 100 µM | > 100 µM | 27.2 µM | > 100 µM | 31.9 µM | 45.3 µM | 63.9 µM | 82.8 µM | > 100 µM | > 100 µM | > 100 µM | 77.7 µM | > 100 µM | – | – | – | –
CCOP(=O)(OCC)C(Nc1ccc(Br)cc1)c1cccc([N+](=O)[O-])c1 (centres undefined) | 60 µM | 34.3 µM | 49.7 µM | 32.4 µM | > 100 µM | 47.6 µM | 28.3 µM | 47.8 µM | 42.2 µM | 28.3 µM | 35.6 µM | 35.4 µM | 39.8 µM | 28 µM | 29.6 µM | – | – | – | –
COc1cccc([C@H]2C/C(=N\NC(=O)C(=O)N[C@@H](C)c3ccccc3)c3ccccc3N2)c1 | > 100 µM | – | 54.1 µM | 0.0495 µM | – | > 100 µM | 0.868 µM | – | > 100 µM | > 100 µM | > 100 µM | > 100 µM | – | – | 0.0962 µM | – | 0.0259 µM | 0.422 µM | 0.0835 µM
CCOC(=O)Cn1c(=O)c2nc(SC)sc2n(CC)c1=S | > 100 µM | > 100 µM | – | > 100 µM | 52.4 µM | > 100 µM | > 100 µM | > 100 µM | > 100 µM | > 100 µM | > 100 µM | > 100 µM | > 100 µM | > 100 µM | – | – | – | – | –
Cc1ccc(/C=C/c2nnc(N/N=C/c3ccc4c(c3)OCO4)[nH]c2=O)cc1 | 30.9 µM | 53.7 µM | 91.8 µM | 79.8 µM | 31.2 µM | 37.4 µM | > 100 µM | > 100 µM | – | > 100 µM | 36.2 µM | 42.6 µM | 33.7 µM | > 100 µM | – | 33.9 µM | – | – | –
COC(=O)CC1NC(=O)[C@@H]1C(C)O (some centres undefined) | > 100 µM | > 100 µM | – | > 100 µM | > 100 µM | > 100 µM | > 100 µM | > 100 µM | – | > 100 µM | > 100 µM | > 100 µM | > 100 µM | – | > 100 µM | – | – | – | –
O=C1c2ccccc2OP(=O)(OCC(F)(F)F)OC1(C(F)(F)F)C(F)(F)F (centres undefined) | > 100 µM | > 100 µM | > 100 µM | > 100 µM | > 100 µM | > 100 µM | > 100 µM | > 100 µM | > 100 µM | > 100 µM | – | > 100 µM | > 100 µM | > 100 µM | > 100 µM | – | – | – | –
COc1ccc(-n2cnc3c2NC(C)(C)N=C3C(N)=O)c(OC)c1 | > 100 µM | > 100 µM | > 100 µM | > 100 µM | > 100 µM | > 100 µM | > 100 µM | – | > 100 µM | > 100 µM | > 100 µM | > 100 µM | > 100 µM | > 100 µM | > 100 µM | – | – | – | –
COc1ccc(N=Cc2ccc(N(CCC#N)S(=O)(=O)c3ccccc3)cc2)cc1 | > 100 µM | > 100 µM | > 100 µM | – | > 100 µM | > 100 µM | > 100 µM | > 100 µM | > 100 µM | > 100 µM | > 100 µM | > 100 µM | > 100 µM | > 100 µM | > 100 µM | – | – | – | –
O=S(Nc1ccccc1)c1cccc(Cl)c1 (centres undefined) | > 100 µM | > 100 µM | > 100 µM | 76.3 µM | > 100 µM | > 100 µM | > 100 µM | > 100 µM | – | > 100 µM | > 100 µM | > 100 µM | > 100 µM | > 100 µM | – | – | – | – | –
CCOC(=O)/C=C/n1c2ccccc2c(=O)c2ccccc21 | > 100 µM | > 100 µM | > 100 µM | > 100 µM | – | > 100 µM | – | > 100 µM | – | > 100 µM | > 100 µM | > 100 µM | > 100 µM | > 100 µM | > 100 µM | – | – | – | –
CC(=O)OCC1OC(c2nc3ccccc3s2)=CC(OC(C)=O)C1OC(C)=O (centres undefined) | > 100 µM | > 100 µM | > 100 µM | – | > 100 µM | > 100 µM | > 100 µM | – | – | > 100 µM | > 100 µM | > 100 µM | > 100 µM | > 100 µM | – | > 100 µM | – | – | –
Nc1nc(SCc2ccc([N+](=O)[O-])cc2)nc2c1ncn2C1OC(CO)C(O)C1O (centres undefined) | > 100 µM | > 100 µM | – | > 100 µM | – | > 100 µM | > 100 µM | > 100 µM | – | > 100 µM | > 100 µM | > 100 µM | > 100 µM | > 100 µM | – | – | – | – | –
CC(C)C1=CC23CCC4C(C)(C(=O)O)CCCC4(C)C2CC1C1C(=O)N(c2ccccc2N2C(=O)C4C5CC6C7(C)CCCC(C)(C(=O)O)C7CCC6(C=C5C(C)C)C4C2=O)C(=O)C13 (centres undefined) | – | 10.6 µM | – | 16.1 µM | – | 16 µM | 17.5 µM | 14.2 µM | 32.5 µM | – | 23.4 µM | 30.6 µM | 18.9 µM | 23 µM | – | – | – | – | –
C=CCC(N(C)C(=O)[C@H](Cc1ccccc1)NC(=O)OCc1ccccc1)P(=O)(Oc1ccccc1)Oc1ccccc1 (some centres undefined) | > 100 µM | > 100 µM | – | > 100 µM | > 100 µM | > 100 µM | – | > 100 µM | > 100 µM | > 100 µM | > 100 µM | > 100 µM | > 100 µM | > 100 µM | > 100 µM | – | – | – | –
Cc1ccc(N(C(=O)Nc2ccccc2)C2=NCC(C)S2)cc1C (centres undefined) | 31.2 µM | 41.9 µM | > 10 µM | > 10 µM | 56.4 µM | > 100 µM | 30.7 µM | > 10 µM | 43.3 µM | 85.3 µM | 32 µM | 62.9 µM | > 100 µM | – | – | – | – | – | –
